Measurements from patent US20150289512A1, “METHOD FOR PROMOTING PLANT GROWTH” (SUMITOMO CHEMICAL COMPANY, LIMITED, priority 2012, published 2015).

Experiments:
Assay type in all cases: in vivo
[1] = system: Corn seeds (variety: Pioneer 120 31P41); test: Test Example 14: growth promotion under low-temperature stress by soil drench treatment of corn; conditions: soil drench 20 ml, low-temperature stress 5 days at 2.5° C., health score 0-5, average of 4 individuals
Description: Test for Evaluating Growth Promotion Under Low-Temperature Stress by Soil Drench Treatment of Corn
Corn seeds (variety: Pioneer 120 31P41) were seeded in a culture soil (Aisai) in a plastic pot (φ55 mm×height of 58 mm), and cultivated for 7 days at 20-25° C., an illuminance of about 5,000 lux, and a day length of 16 hours.
A DMSO solution, which contained one of the compounds 1 to 9, 16, 17, 20, 23, 24, 28 to 32, 34, 45, 48, 50, 82 and 85 of the present invention at a concentration of 1,000-fold concentration of each test concentration, was prepared, and then diluted with distilled water to obtain each test solution. After that, 20 ml of the obtained test solution was used to perform soil drench treatment on the foot of the test plants. The test plants were cultivated for 2 days under the conditions of a temperature of 27° C., a humidity of 40-80%, an illuminance of about 5,000 lux, and a day length of 16 hours. This was used as a test plot treated with the compound. A plot having undergone the soil drench treatment with 20 ml of a 0.1% DMSO aqueous solution instead of the above DMSO solution containing the compound was used as an untreated control plot.
The plants having undergone the soil drench treatment were cultivated for 5 days under the conditions of a temperature of 2.5° C., a humidity of 40-80%, an illuminance of about 5,000 lux, and a day length of 16 hours, thereby exposing to low-temperature stress. After the exposure to the low-temperature stress, the plants were cultivated for 4 days under the conditions of a temperature of 27° C., a humidity of 40-80%, an illuminance of about 5,000 lux, and a day length of 16 hours.
After the cultivation, the health of each plant was scored according to the following evaluation index.
5: 4 or more leaves in which ⅔ or more of the area was healthy
4: 3 leaves in which ⅔ or more of the area was healthy
3: 2 leaves in which ⅔ or more of the area was healthy
2: 1 leaf in which ⅔ or more of the area was healthy
1: No leaf in which ⅔ or more of the area was healthy
An average of the scores of the health of 4 individuals was determined.

[2] = system: Rice (variety: Nipponbare); test: Test Example 1: promotion of root growth by hydroponics of rice, 10 ppm; conditions: hydroponic solution containing the test compound at 10 ppm, average of 4 or 5 individuals
Outline: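 Surface-sterilised seeds germinated 3 days in the dark at 28° C in hydroponic solution with compound at 10 ppm, then grown 3 days hydroponically with compound at 10 ppm (26° C, 4,000 lux, 16 h day, 50% humidity). Seminal root length measured by image analysis, averaged over 4 or 5 plants per plot.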

[3] = system: Nicotiana benthamiana; test: Test Example 5: growth promotion under low-temperature stress by hydroponics of Nicotiana benthamiana, 1 ppm; conditions: 1 ppm in medium, low-temperature stress 7 days at 1.5±1.0° C., green leaf area 3 days later, equation (1)
Description: (§1) Test for Evaluating Growth Promotion Under Low-Temperature Stress by Hydroponics of Nicotiana benthamiana
A DMSO solution, which contained one of the compounds 2, 4, 5, 6, 11, 12, 17, 20, 21, 28, 30, 34, 36, 37, 51, 52, 53, 55, 56, 58, 59, 60, 64, 65, 66, 68, 69, 70, 74, 77, 82, 83, 84, 86 and 87 of the present invention at a concentration of 1,000 ppm, was prepared. The DMSO solution of the compound of the present invention was added at a volume ratio of 1/1,000 to the Murashige•Scoog medium of a ½-fold concentration (a medium containing 2.3 g of mixed salts for the Murashige•Scoog medium (manufactured by Wako Pure Chemical Industries, Ltd.), 200 mg of Myo-inositol (manufactured by Sigma-Aldrich Co. LLC.), 2 mg of nicotinic acid (manufactured by Wako Pure Chemical Industries, Ltd.), 2 mg of pyridoxine hydrochloride (manufactured by Wako Pure Chemical Industries, Ltd.), 20 mg of thiamine hydrochloride (manufactured by Wako Pure Chemical Industries, Ltd.), 20 g of sucrose (manufactured by Wako Pure Chemical Industries, Ltd.), and 1 g of MES (manufactured by DOJINDO LABORATORIES) per 1 L of water and having pH adjusted to 5.8), thereby preparing a medium containing the compound of the present invention at a concentration of 1 ppm.
(§2) Seeds of Nicotiana benthamiana were seeded in the 5 μL of the medium and cultured overnight at 22° C. Thereafter, 45 μL of the medium containing the compound of the present invention at a concentration of 1 ppm was added thereto, and the seeds are cultured for 7 days at 22° C., an illuminance of 4,000 lux, and a day length of 16 hours, and the nursery plants raised from the Nicotiana benthamiana were treated with the compound. Moreover, instead of the above medium, a test plot, which was obtained by performing the same treatment by using a medium prepared by adding DMSO to the Murashige•Scoog medium of ½-fold concentration at a volume ratio of 1/1,000, was used as a control plot not treated with the compound.
(§3) The nursery plants of the Nicotiana benthamiana treated with the compound were subjected to low-temperature treatment by being cultivated for 7 days at 1.5±1.0° C., an illuminance of 2,000 lux, and a day length of 16 hours.
The nursery plants of the Nicotiana benthamiana having undergone the low-temperature stress treatment were cultured for 3 days at 22° C., an illuminance of 4,000 lux, and a day length of 16 hours. Thereafter, the area of green leaf was quantified by Scanalyzer HTS (manufactured by LemnaTec GmbH). Moreover, the value of the control plot not treated with the compound that had not yet been subjected to the low-temperature stress treatment was measured in the same manner. A value of a relative leaf area was calculated based on the following equation (1), and if the value of a relative leaf area was 5 or greater, the compound was evaluated to have a mitigating effect. As a result of the evaluation, it was confirmed that when the plant was treated with one of the compounds 2, 4, 5, 6, 11, 12, 17, 20, 21, 28, 30, 34, 36, 37, 51, 52, 53, 55, 56, 58, 59, 60, 64, 65, 66, 68, 69, 70, 74, 77, 82, 83, 84, 86 and 87 of the present invention at 1 ppm, the value of a relative leaf area was 5 or greater, compared to the area of green leaf of the control plot not treated with compound. Accordingly, it was confirmed that the treatment using the compound of the present invention brings about a growth promotion effect.
(§4) Relative leaf area=100*(a green area of a plot treated with the compound of the present invention−a green area of a control plot not treated with the compound of the present invention)/(a green area of a control plot not treated with the compound of the present invention that has not yet been subjected to low-temperature stress treatment−a green area of a control plot not treated with the compound of the present invention) Equation (1): […]

[4] = system: Nicotiana benthamiana; test: Test Example 6: growth promotion under low-temperature stress by hydroponics of Nicotiana benthamiana, 0.1 ppm; conditions: 0.1 ppm in medium, low-temperature stress 7 days at 1.5±1.0° C., green leaf area 3 days later, equation (1)
Description: as §1
A DMSO solution, which contained one of the compounds 3, 7, 14, 16, 36, 39, 43, 45, 50, 52, 53, 54, 56, 57, 62, 63, 64, 65, 68, 69, 70, 71, 73, 74, 76, 77, 79, 80, 81, 84, 85, 86 and 87 of the present invention at a concentration of 100 ppm, was prepared. The DMSO solution of the compound of the present invention was added at a volume ratio of 1/1,000 to the Murashige•Scoog medium of a ½-fold concentration for the Murashige•Scoog medium (a medium containing 2.3 g of mixed salts (manufactured by Wako Pure Chemical Industries, Ltd.), 200 mg of Myo-inositol (manufactured by Sigma-Aldrich Co. LLC.), 2 mg of nicotinic acid (manufactured by Wako Pure Chemical Industries, Ltd.), 2 mg of pyridoxine hydrochloride (manufactured by Wako Pure Chemical Industries, Ltd.), 20 mg of thiamine hydrochloride (manufactured by Wako Pure Chemical Industries, Ltd.), 20 g of sucrose (manufactured by Wako Pure Chemical Industries, Ltd.), and 1 g of MES (manufactured by DOJINDO LABORATORIES) per 1 L of water and having pH adjusted to 5.8), thereby preparing a medium containing the compound of the present invention at a concentration of 0.1 ppm.
as §2, with “concentration of 0.1 ppm was” for “concentration of 1 ppm was”, “seeds are cultivated for 7” for “seeds are cultured for 7”, “the above medium a test” for “the above medium, a test”
as §3
The nursery plants of the Nicotiana benthamiana having undergone the low-temperature stress treatment were cultivated for 3 days at 22° C., an illuminance of 4,000 lux, and a day length of 16 hours. Thereafter, the area of green leaf was quantified by Scanalyzer HTS (manufactured by LemnaTec GmbH). Moreover, the value of the control plot not treated with the compound that had not yet been subjected to the low-temperature stress treatment was measured in the same manner. A value of a relative leaf area was calculated based on the following equation (1), and if the value of a relative leaf area was 5 or greater, the compound was evaluated to have a mitigating effect. As a result of the evaluation, it was confirmed that when the plant was treated with one of the compounds 3, 7, 14, 16, 36, 39, 43, 45, 50, 52, 53, 54, 56, 57, 62, 63, 64, 65, 68, 69, 70, 71, 73, 74, 76, 77, 79, 80, 81, 84, 85, 86 and 87 of the present invention at 0.1 ppm, the value of a relative leaf area was 5 or greater, compared to the area of green leaf of the control plot not treated with compound. Accordingly, it was confirmed that the treatment using the compound of the present invention brings about a growth promotion effect.
as §4, with “treatment−green” for “treatment−a green”

`COC(=O)c1nc2cc(C(F)(F)F)ccc2n1C` [Compound 24, methyl 1-methyl-5-trifluoromethylbenzimidazole-2-carboxylate] gave a change in vivo at 10 ppm ([1]; Zea mays, 120 h, concentration tested 10 ppm, read-out: Relative value of score (%- untreated control plot)) greater than 5%.
`CCOC(=O)c1oc2ccccc2c1C(F)(F)F` [Compound 84] was tested, and the change in vivo at 10 ppm ([2]; Oryza sativa, read-out: Relative value of length of seminal root (%-untreated control plot)) was greater than 5%, the relative leaf area (% of untreated control) at 1 ppm [3] was no less than 5% and the relative leaf area (% of untreated control) at 0.1 ppm [4] was no less than 5%.
`CCOC(=O)c1nc2ccccc2s1` [Compound 31] was tested, and the “Relative value of score (%- untreated control plot)” value ([1]; concentration tested 0.3 ppm) was greater than 5%.
For `O=C(O)c1nc2ccccc2s1` [Compound 32], the “Relative value of length of seminal root (%-untreated control plot)” value (“Relative value … (%-untreated control plot)” below) [2] was greater than 5% and the “Relative value of score (%- untreated control plot)” value ([1]; concentration tested 0.3 ppm) was greater than 5%.
`CCOC(=O)c1cc2cc(C(F)(F)F)ccc2[nH]1` [Compound 9] was tested, and the “Relative value … (%-untreated control plot)” value [2] was greater than 5% and the “Relative value of score (%- untreated control plot)” value ([1]; concentration tested 3 ppm) was greater than 5%.
In the case of `COC(=O)c1nc2ccccc2n1C` [Compound 23], the “Relative value … (%-untreated control plot)” value [2] is reported as greater than 5% and the “Relative value of score (%- untreated control plot)” value ([1]; concentration tested 10 ppm) is reported as greater than 5%.
Compound `COC(=O)c1nc2c(F)cc(F)cc2s1` [Compound 87] has a relative leaf area (% of untreated control) at 1 ppm [3] of no less than 5% and a relative leaf area (% of untreated control) at 0.1 ppm [4] of no less than 5%.
